Test results reported in patent US10011814B2, “Salt formulations for the fermentation of marine microorganisms” (Triphase Research and Development I Corp., priority 2006, dated 2018).
Like-named read-outs stand apart in the source and are kept apart here.

Assays:
[1] = test system: Salinispora tropica CNB440; conditions: CNB440, day 6 production culture
Procedure: (§1) The first seed cultures (100 mL medium) in 500-mL Erlenmeyer flasks were incubated for 96 hours before inoculating 5 mL of the first seed culture into the second seed medium with the same composition as the first seed medium. The second seed cultures (100 mL medium in 500-mL Erlenmeyer flask) were incubated for 48 hours before inoculating 5 mL of the second seed culture into the production medium (100 mL in a 500-mL Erlenmeyer flask).
(§2) Per liter of DI H2O, the production medium consisted of: 10 g Starch, 4 g Hy Soy, 4 g Yeast Extract, 1 g CaCO3, 40 mg Fe2(SO4)3, and 100 mg KBr. The production medium was then supplemented with a chemically defined salt formulation consisted of the following common salt components along with different levels of NaCl:
(§3) The NaCl levels used were 0, 5, 10, 15, 20, 24 and 30 g/L. About […], sterile XAD-7 resin slurry was added to the production cultures in a final concentration of 20 g/L. The production culture was then further incubated and harvested at various time points to determine productivity.

[2] = test system: Salinispora tropica CNB476; conditions: CNB476, day 6 production culture
Procedure: as §1, §2, §3

[3] = test system: Salinispora tropica NPS021184; conditions: NPS21184, day 6 production culture
Procedure: as §1, §2, §3

Measured: Packed Cell Volume

[Cl-].[Na+] [NaCl]
4%: [1]; NaCl 15 g/L
6%: [2]; NaCl 20 g/L | [2]; NaCl 24 g/L | [2]; NaCl 30 g/L | [3]; NaCl 5 g/L | [3]; NaCl 10 g/L | [3]; NaCl 15 g/L
0%: [1]; NaCl 0 g/L | [2]; NaCl 0 g/L | [3]; NaCl 0 g/L
5%: [1]; NaCl 5 g/L | [1]; NaCl 10 g/L | [1]; NaCl 20 g/L | [1]; NaCl 24 g/L | [1]; NaCl 30 g/L | [2]; NaCl 10 g/L | [2]; NaCl 15 g/L | [3]; NaCl 20 g/L | [3]; NaCl 24 g/L | [3]; NaCl 30 g/L
2%: [2]; NaCl 5 g/L
